{"source": "patent US12569500B2", "about": "“Combination comprising tricycle compound and use thereof in preparation of medicament for treating HBV” (FUJIAN AKEYLINK BIOTECHNOLOGY CO., LTD., priority 2020, dated 2026)", "key": {"[1]": {"system": "HBsAg", "test": "Single agent anti-HBV activity, HBsAg in supernatant by ELISA, HepG2.2.15 cells", "type": "cell-based", "details": "Hepatitis B virus, HepG2.2.15, 192 h, read-out: HBsAg EC50", "protocol": "(§1) Cell line: HepG2.2.15 cells are constructed and provided by WuXi AppTec. The cell culture medium is DMEM/F12 medium supplemented with 2% fetal bovine serum, 2 mM glutamine, 1×non-essential amino acids, 100 U/mL penicillin and 100 µg/mL streptomycin.\n(§2) 2.1.1 On the first day, HepG2.2.15 cells were seeded into a 96-well cell culture plate at a density of 60,000 cells/well, and then the cells were cultured overnight at 5% CO2 and 37° C. On the second day, the compound 1 and the compound of formula (IIb) and the compound of formula (IIIb) were diluted and added to a 96-well plate. Each combination was a three-fold plate. The cells were cultured under 5% CO2 and 37° C. for 3 days. On the 5th day, a new culture medium containing the compound was replaced, and the supernatant was collected on the 8th day. The HBsAg in the supernatant was detected by ELISA, and the DNA in the supernatant was extracted at the same time, and the content of HBV DNA in the supernatant was detected by quantitative PCR. After collecting the cell supernatant, add CellTiter-Glo to detect cell viability."}, "[2]": {"test": "Pharmacokinetic analysis of test compounds in AAV/HBV model mice", "type": "in vivo, C57BL/6 mice"}, "[3]": {"system": "HepG2.2.15 cells", "test": "CellTiter-Glo cytotoxicity of compound 1 / TDF combination", "type": "cell-based", "protocol": "1.1 Day 1, HepG2.2.15 cells were seeded into a 96-well cell culture plate at a density of 40,000 cells/well, and then the cells were cultured overnight at 5% CO2 and 37° C.\n1.2 Day 2, the compound 1 and TDF were combined with 7 different concentrations (selected about 8×, 4×, 2×, 1×, 0.5×, 0.25×, 0.125×EC50 concentration gradient) for orthogonal proportioning, and added to 96-well plate, each combination is 3 double plates, and the final concentration of DMSO is 0.5%.\n1.3 Day 5, the cell supernatant was discarded, a fresh medium containing the compound was added, and the cells were cultured under 5% CO2, 37° C. for 3 days. On the 8th day, the supernatant from the cell plate treated with the compound was extracted according to the QIAamp 96 DNA Blood Kit (12) instruction.\nMacSynegy software (Prichard et al., 1990) was used to process the HBV DNA copy number test data and analyze the effect parameters of compound 1 and TDF in combination. The CellTiter-Glo kit was used to detect the cytotoxicity of the compounds to HepG2.2.15 cells. According to the kit instructions, use a multifunctional microplate reader to detect the chemiluminescence intensity (RLU) of each cell well."}, "[4]": {"system": "HBV", "test": "AAV/HBV mouse model, anti-hepatitis B virus efficacy in vivo (serum/liver HBV DNA, serum HBV RNA)", "parameters": "species or system C57BL/6 mice", "protocol": "5-week-old male C57BL/6 mice without specific pathogen level, purchased from Shanghai Slack Laboratory Animal Co., Ltd.\nCompound 1 was added with an appropriate amount of the above-mentioned solvent, and a uniform particle suspension was obtained after vortexing, and the preparation concentration was 1.0, 3.0 and 10.0 mg/mL. Store at 4° C. until used. Compound 1 is calculated according to the salt coefficient of 1.0 and the purity of 100%.\nTenofovir disoproxil (TDF) was purchased from Shanghai Panhong Chemical Technology Co., Ltd. Weigh an appropriate amount of TDF and dissolve it in physiological saline to prepare a 1 mg/mL mother liquor, vortex until TDF is fully dissolved, dispense into 1 mL size and store at −20° C. Take 1 mL of mother liquor before each administration, and dilute the working solution 10 times to 0.1 mg/mL with normal saline for the day's administration.\nrAAV8-1.3HBV (Type D, ayw) was purchased from Beijing Wujiahe Institute of Molecular Medicine, batch number x2018032301, 1×10^12 viral genome (v.g.)/mL. Dilute with sterile PBS to 5×10^11 v.g./mL before the experiment. Each mouse was injected with 200 μL, that is, each mouse was injected with 1×10^11 v.g.\nAAV/HBV injection: rAAV8-1.3HBV is pre-prepared with sterile PBS to a concentration of 1×10^11 v.g./200 μL solution before injection.\nInfection level detection: On days 14 and 21 after virus injection, about 120 μL of blood was collected from the submandibular vein for all infected mice to collect serum. After the whole blood was incubated in a 37° C. incubator for 30 minutes, the blood was centrifuged at 13,200×g for 3 minutes at 4° C. to collect about 30 μL of serum. The serum is stored at −80° C. for the detection of HBV DNA, HBeAg and HBsAg.\nGrouping: On the 28th day after virus injection, according to the levels of HBV DNA, HBsAg and HBeAg in serum samples on the 14th and 21st days after virus injection, and the body weight of the mice.\nDefinition of experimental days: the day of the first dosing is set to day 0 of the experiment.\nSerum sample preparation: After the blood sample was incubated at 37° C. for about 30 minutes, centrifuged at 4° C., 13,200 g for 3 minutes, and the separated supernatant was quickly frozen in dry ice.\nBlood was collected from the heart to collect serum for HBV DNA detection and detection of HBV RNA levels in groups 1 and 4.\n3. Quantitative PCR detection of HBV DNA content in mouse serum and liver:\nData analysis: The data is expressed as the average value standard error of each group of samples. Unless otherwise specified, groups 1-6: n=8. Use Student's t test for statistical analysis."}, "[5]": {"system": "HBV", "test": "Single agent anti-HBV activity, HBV DNA in supernatant by quantitative PCR, HepG2.2.15 cells", "type": "cell-based", "details": "Hepatitis B virus, 192 h, day 8", "protocol": "as §1, §2"}, "[6]": {"details": "10 mg/kg, BID, AAV/HBV model mice, day 27"}, "[7]": {"details": "C57BL/6, mouse, serum, po, 10 mg/kg, BID, AAV/HBV model mice, day 27"}, "[8]": {"details": "100 mpk BID, after 28 days of dosage, vs solvent group"}}, "note": "Like-named read-outs stand apart in the source and are kept apart here.", "data": [{"smiles": "Cc1cc2n(c1)S(=O)(=O)c1ccc(C(=O)NCC[C@H]3COCCO3)cc1NC2=O", "note": "[Compound 1]", "values": [{"measurement": "EC50", "setting": "[1]", "value": "> 1000", "unit": "nM"}, {"measurement": "AUC0-inf/AUC0-last", "setting": "[2]; [6]", "value": 101, "unit": "%"}, {"measurement": "Tlast", "setting": "[2]; [6]", "value": 24.0, "unit": "h"}, {"measurement": "T 1/2 calculation time range", "setting": "[2]; 10 mg/kg, BID, AAV/HBV model mice, day 27, in h", "value": "9-24"}, {"measurement": "AUC(0-t)", "setting": "[2]; C57BL/6, mouse, serum, po, 10 mg/kg, BID, AAV/HBV model mice, day 27, read-out: AUC0-8", "value": 26, "unit": "µM·h"}, {"measurement": "AUC(0-t)", "setting": "[2]; C57BL/6, mouse, serum, po, 10 mg/kg, BID, AAV/HBV model mice, day 27, read-out: AUC0-last", "value": 47.3, "unit": "µM·h"}, {"measurement": "AUC(0-inf)", "setting": "[2]; [7]", "value": 47.6, "unit": "µM·h"}, {"measurement": "Cmax", "setting": "[2]; [7]", "value": 12.2, "unit": "µM"}, {"measurement": "Tmax", "setting": "[2]; [7]", "value": 1, "unit": "h"}, {"measurement": "half-life", "setting": "[2]; [7]", "value": 134, "unit": "min"}, {"measurement": "MRT inf", "setting": "[2]; C57BL/6, mouse, serum, po, 10 mg/kg, BID, AAV/HBV model mice, day 27, read-out: MRT0-inf", "value": 6.36, "unit": "h"}, {"measurement": "MRT last", "setting": "[2]; C57BL/6, mouse, serum, po, 10 mg/kg, BID, AAV/HBV model mice, day 27, read-out: MRT0-last", "value": 6.27, "unit": "h"}, {"measurement": "concentration at 0 h", "setting": "[2]; C57BL/6, mouse, serum, group 2, 10 mg/kg BID oral, day 27, 0 hours (before dosage), read-out: average drug concentration in the mouse serum", "value": 78, "unit": "nM"}, {"measurement": "concentration at 4 h", "setting": "[2]; C57BL/6, mouse, serum, group 2, 10 mg/kg BID oral, day 27, 4 hours after the first dosage, read-out: average drug concentration in the mouse serum", "value": 1630, "unit": "nM"}, {"measurement": "concentration at 8 h", "setting": "[2]; C57BL/6, mouse, serum, group 2, 10 mg/kg BID oral, day 27, 8 hours after the first dosage, read-out: average drug concentration in the mouse serum", "value": 605, "unit": "nM"}, {"measurement": "concentration at 9 h", "setting": "[2]; C57BL/6, mouse, serum, group 2, 10 mg/kg BID oral, day 27, 9 hours after the first dosage, read-out: average drug concentration in the mouse serum", "value": 10.3, "unit": "µM"}, {"measurement": "concentration at 12 h", "setting": "[2]; C57BL/6, mouse, serum, group 2, 10 mg/kg BID oral, day 27, 12 hours after the first dosage, read-out: average drug concentration in the mouse serum", "value": 1280, "unit": "nM"}, {"measurement": "concentration at 24 h", "setting": "[2]; C57BL/6, mouse, serum, group 2, 10 mg/kg BID oral, day 27, 24 hours after the first dosage, read-out: average drug concentration in the mouse serum", "value": 66, "unit": "nM"}, {"measurement": "average cell viability percentage", "setting": "[3]; Compound 1 0.533 nM + TDF 0 nM", "value": 121.5, "unit": "%"}, {"measurement": "average cell viability percentage", "setting": "[3]; Compound 1 1.065 nM + TDF 0 nM", "value": 128.1, "unit": "%"}, {"measurement": "average cell viability percentage", "setting": "[3]; Compound 1 2.131 nM + TDF 0 nM", "value": 124.5, "unit": "%"}, {"measurement": "average cell viability percentage", "setting": "[3]; Compound 1 4.261 nM + TDF 0 nM", "value": 125.1, "unit": "%"}, {"measurement": "average cell viability percentage", "setting": "[3]; Compound 1 8.522 nM + TDF 0 nM", "value": 124.3, "unit": "%"}, {"measurement": "average cell viability percentage", "setting": "[3]; Compound 1 17.04 nM + TDF 0 nM", "value": 123.1, "unit": "%"}, {"measurement": "average cell viability percentage", "setting": "[3]; Compound 1 34.09 nM + TDF 0 nM", "value": 115.2, "unit": "%"}, {"measurement": "serum HBV DNA content", "setting": "[4]; 10 mpk BID (Group 2), after 7 days of dosage", "value": "remained stable after 7 days of dosage"}, {"measurement": "HBV DNA content in the liver", "setting": "[4]; 10 mpk BID, after 28 days of dosage, vs solvent group", "value": "decreased"}, {"measurement": "serum HBV DNA content", "setting": "[4]; 30 mpk BID, after 7 days of dosage", "value": "remained stable after 7 days of dosage"}, {"measurement": "HBV DNA content in the liver", "setting": "[4]; 30 mpk BID, after 28 days of dosage, vs solvent group", "value": "decreased"}, {"measurement": "serum HBV DNA content", "setting": "[4]; 100 mpk BID, 7-28 days after dosage, vs solvent group, p<0.01", "value": "significantly lower than that in the solvent group"}, {"measurement": "HBV DNA content in the liver", "setting": "[4]; [8]", "value": "decreased"}, {"measurement": "HBV RNA content in the serum", "setting": "[4]; [8]", "value": "decreased"}, {"measurement": "mouse serum and liver HBV DNA", "setting": "[4]; compared with the solvent control group", "value": "significantly reduced"}, {"measurement": "serum HBV DNA content, trend over doses", "setting": "[4]; low (10 mpk), medium (30 mpk), high (100 mpk) dose groups BID vs solvent group, after 3 days of dosage", "value": "dose-dependent trend"}, {"measurement": "EC50", "setting": "[5]", "value": 6.03, "unit": "nM"}]}]}
